Legend:
full-length human PDE4D5 = molecular target: T1, full-length human PDE4D5 (Homo sapiens, UniProt Q08499); test: PDE4D5 long form enzyme activation radio-assay (Experiment 1, Protocol A or B); assay type: biochemical; settings: 30 μM, mean % increase in counts over basal activity
T1 construct: stably expressed the full-length human PDE4D5, PDE4A4 and PDE4B1 long isoforms; made in house; cytosol fraction of cell lysate
Excerpt: (§1) Experiment 1: Identification of PDE4 Long Form Activators of the Present Invention Using Full-Length Human PDE4 Isoforms PDE4D5, PDE4A4, PDE4B1 and PDE4B2
(§2) HEK 293 cells were transfected with pDEST™ PDE4 expression vectors using Lipofectamine LTX/Plus reagent (Invitrogen) as outlined by the manufacturer and clonal isolates expanded to obtain cell lines that stably expressed the full-length human PDE4D5, PDE4A4 and PDE4B1 long isoforms and the full length human PDE4B2 short isoform. These were called the HEK-PDE4D5, HEK-PDE4A4, HEK-PDE4B1 and HEK-PDE4B2 cell lines, respectively.
(§3) HEK-PDE4D5 cells were seeded out in 100 mm plates and incubated at 37° C. in an atmosphere of 5% CO2, 95% air. Cell lysates were prepared using KHEM buffer [50 mM KCl, 10 mM EGTA, 50 mM HEPES (pH 7.2), 1.92 mM MgCl2].
(§4) To prepare the cell lysates, the 100 mm plates containing the cells were placed on ice and washed with ice-cold PBS (phosphate buffered saline, pH 7.4). KHEM buffer (500 μl) was added to the cells. Cells were then scraped off the plate and triturated using a needle (BD Microlance™ 0.8, 40 mm). The lysed cells were then centrifuged at 2000 rpm for 10 minutes to remove cell debris and the supernatant (cell lysate containing recombinant PDE4D5) was transferred to a fresh tube and kept on ice.
(§5) The cell lysate containing recombinant PDE4D5 was transferred into a centrifuge tube and placed into an ultracentrifuge (BECKMAN COULTER) and spun at high speed (100,000 g) for 30 minutes at 4° C. The cytosol fraction was then collected and its protein amount determined using a BCA protein assay.
(§6) PDE assays were performed using a final concentration of 10 mM Tris/5 mM MgCl2 and 1 μM [^3H]-cAMP (Perkin Elmer) plus PDE4D5 cell lysate cytosol fraction, containing over-expressed PDE4D5, with and without test compound. Incubations were performed at 30° C. for 5 minutes. The samples were then placed in a boiling water bath for 2 minutes to denature the PDE enzyme, and returned to ice. Samples were allowed to cool for 10 min after which snake venom 5′-nucleotidase (25 μl, 1 mg/ml; Sigma) was added. The tubes were vortexed and incubated in a water bath at 30° C. for 10 minutes, to attain conversion of [^3H]-5′-AMP to [^3H]-adenosine, and then placed on ice. Dowex ion exchange resin (Sigma) prepared as a 1:1 Dowex: water stock was thoroughly re-suspended and diluted 2:1 with ethanol. The resulting Dowex suspension (0.4 ml) was added to each tube. Tubes were vortexed to mix and then incubated on ice for at least 15 minutes before a final vortex. The Dowex resin was pelleted by centrifugation at 13,000 g at 4° C. for 3 minutes and 150 μl of the supernatant was removed to an Eppendorf tube containing 1 ml of ScintiSafe3 scintillation fluid (Fisher). Tubes were vortexed thoroughly to mix and the recovered [^3H]-adenosine was quantified by measuring counts over 1 minute in a scintillation counter.
(§7) The % increase in counts in the presence of test compound at a particular concentration indicates the % increase in enzyme activity at that concentration.
(§8) PDE assays were performed in thin walled V-bottomed 96-well plates. The assays were performed at a final concentration of 10 mM Tris/5 mM MgCl2 plus PDE4D5 cell lysate cytosol fraction, containing over-expressed PDE4D5, with and without test compound. The lysate/compound mix were incubated together for 15 min at room temperature on an orbital shaker prior to addition of [^3H] cAMP (final concentration 1 μM [^3H] cAMP; Perkin Elmer) to a final volume of 50 μl per reaction. The reactions were then incubated for 10 minutes at 30° C., terminated by heating for 2 min at 95° C. and allowed to cool. Snake venom (12.5 μl of 1 mg/ml; Crotalus atrox, Sigma) was then added and the plates were agitated and incubated for a further 15 minutes at 30° C. […]

full-length human PDE4B2 = molecular target: T2, full-length human PDE4B2 (Homo sapiens, UniProt Q07343); test: PDE4B2 short form enzyme activation radio-assay (Experiment 1, Protocol A or B); assay type: biochemical; settings: 30 μM, mean % increase in counts over basal activity
T2 construct: and the full length human PDE4B2 short isoform; made in house; cytosol fraction of cell lysate
T2 sequence (Q07343 1-564 isoform Q07343-2): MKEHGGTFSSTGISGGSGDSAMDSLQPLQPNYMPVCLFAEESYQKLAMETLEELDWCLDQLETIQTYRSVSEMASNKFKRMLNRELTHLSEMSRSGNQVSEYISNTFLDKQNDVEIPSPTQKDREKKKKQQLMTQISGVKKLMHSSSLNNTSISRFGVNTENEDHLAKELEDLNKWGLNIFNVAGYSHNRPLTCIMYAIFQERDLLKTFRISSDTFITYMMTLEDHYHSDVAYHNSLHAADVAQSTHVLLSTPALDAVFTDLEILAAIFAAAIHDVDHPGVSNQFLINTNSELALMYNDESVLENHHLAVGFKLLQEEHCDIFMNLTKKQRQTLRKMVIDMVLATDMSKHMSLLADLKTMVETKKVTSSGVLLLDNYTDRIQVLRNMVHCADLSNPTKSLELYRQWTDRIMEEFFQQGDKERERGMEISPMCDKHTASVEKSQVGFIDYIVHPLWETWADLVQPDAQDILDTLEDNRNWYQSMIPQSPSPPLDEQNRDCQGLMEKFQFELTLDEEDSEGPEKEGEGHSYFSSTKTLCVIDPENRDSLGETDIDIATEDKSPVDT
Excerpt: as §1, §2, §3, §4, §5, §6, §7, §8

MDCK cells [1] = test: Reduction of intracellular cAMP levels in forskolin-stimulated MDCK cells (Experiment 2); assay type: cell-based, canine; settings: compound 10 μM for 10 min prior to forskolin 10 μM for 2 min; FIG. 2
Protocol: MDCK cells were seeded at 100,000 cells per well, and left to adhere overnight. The cells were then treated with the test compound (10 μM) for 10 minutes, prior to stimulation with forskolin (10 μM, Sigma) for 2 minutes. Media was aspirated, and hydrochloric acid (0.1M) was added to lyse the cells. The cAMP assay (Enzo Life Sciences) was performed according to the manufacturer's instructions.

MDCK cells [2] = test: Inhibition of in vitro cyst formation in 3D MDCK culture, PGE2-stimulated (Experiment 3, Protocol D); assay type: cell-based, canine; settings: 300 nM PGE2-stimulated, FIG. 3
Excerpt: In this study, the well-established three-dimensional (3D) MDCK cell model is used to investigate the effects of PDE4 long form activators on the formation of kidney cysts and evaluate their potential in the treatment of polycystic kidney diseases. 3D cysts are generated based on the method of Mao et al. (Mao, Z., Streets, A. J., Ong, A. C. M. Am. J. Physiol. Renal Physiol. 300(6): F1375-F1384, 2011), with some modifications.
Type 1 collagen (Invitrogen) is first prepared on ice by neutralising an acidic stock solution (3 mg/ml) with 17 mM NaOH and diluting it to 1 mg/ml with DMEM, supplemented with 2% (v/v) FBS, 2 mM L-glutamine, 1,000 U penicillin and 1,000 μg streptomycin (DMEM-2% FBS). […]
Phase-contrast images are obtained on the Motic microscope (×4 magnification). 8 images are taken per condition and the cyst diameter measured (up to 150 cyst measurements per well). Cyst spheroid volume is calculated using the formula 4/3πr^3 where r is the radius of the spheroid. A mean cyst volume is then calculated per well. The mean cyst volume and standard deviation between the duplicate wells is then calculated and expressed as a % Cyst Volume compared to the vehicle only (DMSO+300 nM PGE2) control wells.

T1 sequence (Q08499 1-745 isoform Q08499-6): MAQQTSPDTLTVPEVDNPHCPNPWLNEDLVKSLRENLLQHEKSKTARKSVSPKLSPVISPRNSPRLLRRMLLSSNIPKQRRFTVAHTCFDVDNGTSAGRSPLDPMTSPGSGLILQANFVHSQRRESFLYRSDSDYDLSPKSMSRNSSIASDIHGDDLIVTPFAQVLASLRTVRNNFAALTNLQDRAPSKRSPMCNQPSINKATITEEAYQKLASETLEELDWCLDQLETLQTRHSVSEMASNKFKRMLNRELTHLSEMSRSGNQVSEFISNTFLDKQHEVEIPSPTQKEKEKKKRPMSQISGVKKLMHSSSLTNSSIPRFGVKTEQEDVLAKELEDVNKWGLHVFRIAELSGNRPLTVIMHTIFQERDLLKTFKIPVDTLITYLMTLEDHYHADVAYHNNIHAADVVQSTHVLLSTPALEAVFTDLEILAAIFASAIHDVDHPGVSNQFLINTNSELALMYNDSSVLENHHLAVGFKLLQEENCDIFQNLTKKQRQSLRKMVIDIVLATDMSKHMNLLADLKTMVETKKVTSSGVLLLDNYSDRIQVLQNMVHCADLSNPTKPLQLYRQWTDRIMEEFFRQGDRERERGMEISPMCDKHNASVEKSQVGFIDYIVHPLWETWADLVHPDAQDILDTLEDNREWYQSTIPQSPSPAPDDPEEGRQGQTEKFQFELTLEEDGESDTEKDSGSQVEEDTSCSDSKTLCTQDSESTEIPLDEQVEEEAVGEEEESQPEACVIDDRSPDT

SMILES	activation at 30 µM (full-length human PDE4D5; Protocol A) [%]	activation at 30 µM (full-length human PDE4B2; Protocol A) [%]	intracellular cAMP levels in MDCK cells (in words) (MDCK cells [1])	activation at 30 µM (full-length human PDE4D5; Protocol B) [%]	activation at 30 µM (full-length human PDE4B2; Protocol B) [%]	cyst formation in 3D culture of MDCK cells (in words) (MDCK cells [2])
COC(=O)c1nc(-c2ccc(Cl)c(F)c2)nn1CC(=O)NCc1cccc(F)c1 [Example 1, Methyl 3-(4-chloro-3-fluorophenyl)-1-{[(3-fluorobenzyl)carbamoyl]methyl}-1H-1,2,4-triazole-5-carboxylate]	105	19.5	reduction in intracellular cAMP levels	–	–	–
CNC(=O)c1nc(-c2ccc(Cl)c(F)c2)nn1CC(=O)NCc1ccc2[nH]ncc2c1 [Example 28, 3-(4-chloro-3-fluorophenyl)-1-({[(1H-indazol-5-yl)methyl]carbamoyl}methyl)-N-methyl-1H-1,2,4-triazole-5-carboxamide]	–	–	–	101	-7.9	inhibition of cyst formation
